{
  "source": "patent US20150259371A1",
  "about": "“METHODS AND COMPOUNDS FOR INHIBITING GLYCOSYLTRANSFERASES” (SIMON FRASER UNIVERSITY, priority 2010, published 2015)",
  "key": {"[1]": {"system": "UDP-sugar nucleotide pools in COS-7 cells", "assay": "UDP-sugar pools extracted from treated COS-7 cells, capillary electrophoresis", "assay_type": "cell-based, African green monkey", "procedure": "Capillary electrophoresis (CE): CE was performed on a ProteomeLab PA800 (Beckman-Coulter) using fused silica capillaries of […]×44 cm (to detector). The running buffer was 40 mM Na2B4O7 (Sigma), pH 9.5, containing 1.0% (wv) polyethylene glycol (MW 20,000; Fluka) and filtered prior to use. The capillary was conditioned by washing with 1 N NaOH (2 min, 20 psi), 18 MΩ H2O (3 min, 20 psi) and running buffer (5 min, 40 psi). After injecting a short (15 nL) H2O plug, samples were electrostatically introduced and pre-concentrated at the anode by applying a potential of -0.5 kV for 10 s according to the field-amplified sample injection technique described by Chien and Burgi^39. Electrophoresis was carried out at a constant voltage of 30 kV and capillary temperature of 22° C. Electropherograms were derived by measuring the absorbance at 254 (+/−10) nm at a rate of 4 Hz. Peaks were integrated using 32 Karat 5.0 software (Beckman-Coulter) and all peaks were normalized to the GDP-Glc internal standard.\nExtraction of nucleotide sugars from cell lysates: COS-7 cells, on 10 cm plates, were treated with 0, 50, 250 or 1000 μM Ac-5SGlcNAc for 24 h; each condition was performed in triplicate. Cells were washed gently with PBS prior to the addition of 1 mL PBS containing 10 mM EDTA. Cells were incubated at 37° C. for […], the cells scraped from the plate, and pelleted by centrifugation (1000 rpm, 10 min, 4° C.). Cell pellets were immediately lysed by the addition of 750 μL 75% (vv) ethanol (−20° C.) and sonicated using a W-375 ultrasonic processor (Heat Systems Ultrasonics, Inc.). Insoluble material was removed by centrifugation (14,000 rpm, 15 min, 4° C.) and the supernatant was snap frozen and lyophilized^44,45. The crude extract was spiked with GDP-Glc (200 pmol) as an internal standard, dissolved in 0.5 mL 18 MΩ H2O and nucleotide sugars extracted using Envi-Carb graphite solid-phase extraction cartridges (200 mg) (Supelco) as described by Räbinä et al^38. Briefly, Envi-Carb cartridges were conditioned with 80% (vv) CH3CN and 20% 0.1% (vv) TFA (3 mL), followed by 18 MΩ H2O (6 mL), before samples were applied. After passing the samples through the SPE cartridge, the cartridge was sequentially washed with 2 mL of each of 18 MΩ H2O, 25% (vv) CH3CN, and 50 mM triethylammonium acetate (TEAA), pH 7.0. Sugar nucleotides were eluted with 3×1 mL 25% CH3CN in 50 mM TEAA, pH 7.0, passed through a 0.22 μm filter (Millipore), lyophilized, and stored at −20° C. until analysis. Extracted sugar nucleotides were dissolved in 200 μL 18 MΩ H2O and an aliquot was diluted 1:4 prior to characterization by CE using a method adapted from Feng et al^46."}, "[2]": {"system": "N-glycosylation of IgG from mouse hybridoma cell line", "assay": "Lectin blots of IgG immunoprecipitated from treated mouse hybridoma cells", "assay_type": "cell-based", "conditions": "0-1000 μM, 24 h"}, "[3]": {"system": "O-GlcNAc levels in mice tissues", "assay": "O-GlcNAc levels in mouse tissues after intraperitoneal dosing", "assay_type": "in vivo", "conditions": "300 mg/kg intraperitoneally, 16 hours", "procedure": "Ac-5SGlcNAc 9 and the deprotected analogue with the hexyl substituent at the C2 position 28 have been analyzed for effectiveness at decreasing O-GlcNAc levels in mice. Pilot studies were conducted with mice dosed in triplicate with either compound or vehicle alone. Compounds were dosed at 300 mg/kg intraperitoneally using 75% DMSO as vehicle for delivery of 9 and phosphate-buffered saline (PBS) for delivery of 28. Mice were euthanized using a CO2 chamber after 16 hours exposure to either compound, and tissues (liver, lung, heart, kidney, spleen, pancreas, brain, blood, fat and muscle) harvested and flash frozen in liquid nitrogen. Frozen tissues were ground using a pestle and mortar, and resuspended in cell lysis buffer (50 mM NaH2PO4, 150 mM NaCl, 0.1% SDS, 1% NP-40, 0.25% sodium deoxycholate, 1 mM EDTA, 30 mM sodium fluoride, 30 mM β-glycerophosphate, 5 mM sodium pyrophosphate, 1 mM Thiamet-G, protease inhibitor cocktail (Roche)) at a concentration of 100 mg tissue1 mL buffer prior to homogenization. Homogenates were centrifuged at 13,000 rpm for 20 min, the supernatant removed, added to 2×SDS-PAGE loading buffer and boiled for […]. SDS-PAGE and western blots were performed using standard procedures. Blots were probed using anti-O-GlcNAc antibody (CTD110.6, Santa Cruz Biotechnology) and anti-actin antibody for a loading control."}, "[4]": {"system": "O-GlcNAc levels in primary CLL cells", "assay": "Western blot of O-GlcNAc levels in primary CLL cells", "assay_type": "cell-based", "conditions": "0-250 μM, 5 days", "procedure": "Primary CLL cells, obtained from Dr. David Spaner at the University of Toronto, were tested for their response to Ac-5SGlcNAc (9). Cells were plated at a confluency of 1 million cells/mL, and treated with between 0-250 μM 9, in the presence or absence of cytokine (1000 U/mL IL-2 and 1 μg/mL Resiquimod) stimulation to mimic cancer progression. Cells were observed over the course of 5 days, and harvested after this time into SDS-PAGE loading buffer before being subjected to western blotting."}},
  "data": [
    {"smiles": "CC(=O)NC1C(OC(C)=O)SC(COC(C)=O)C(OC(C)=O)C1OC(C)=O", "note": "[Compound 9, N-Acetyl-1,3,4,6-tetra-O-acetyl-α-D-5-thio-glucosamine]", "values": [
      {"measurement": "UDP-GlcNAc levels relative to basal", "setting": "[1]; 50 μM", "value": "more than 60 % of basal levels"},
      {"measurement": "UDP-Glc and UDP-Gal levels in cells", "setting": "[1]; COS-7, 0-1000 μM, 24 h", "value": "uridine diphosphoglucose and uridine diphosphogalactose levels are unaffected"},
      {"measurement": "UDP-GlcNAc levels in cells", "setting": "[1]; COS-7, 0-1000 μM, 24 h", "value": "small decrease in UDP-GlcNAc levels"},
      {"measurement": "amount of UDP-5SGlcNAc in cells", "setting": "[1]; COS-7, 0-1000 μM, 24 h", "value": "dose dependent increase in the amount of UDP-5SGlcNAc in cells"},
      {"measurement": "GNA and ConA reactivity of hybridoma IgG", "setting": "[2]", "value": "slight decrease in GNA and ConA reactivity when using a very high dose"},
      {"measurement": "O-GlcNAc levels in tissues", "setting": "[3]", "value": "effective at decreasing O-GlcNAc levels during the 16 hour dosing period in the liver, lung, heart, kidney, spleen, pancreas, fat and muscle"},
      {"measurement": "O-GlcNAc levels", "setting": "[4]", "value": "O-GlcNAc levels were decreased in a dose-dependent fashion"}
    ]}
  ]
}
